Results published in patent US12668600B2 (Kumquat Biosciences Inc., priority 2023, dated 2026).
pIC50: −log10 of the molar value.

Legend:
Type in all cases: biochemical
[1] = target: T1, KRAS WT (Homo sapiens, UniProt P01116); test: HTRF KRAS-SOS1 interaction assay, wildtype KRAS; conditions: binned ≤2 μM / >2 μM, read-out: Inhibition of KRAS WT (IC50)
T1 construct: made in house; host or cells: E. coli, e.g. BL21 (DE3)
Procedure, shortened: (§1)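 GST-tagged KRAS (WT or mutant) with anti-GST-Eu donor and His-hSOS1 with anti-6His-XL665 acceptor were combined in 5 mM HEPES pH 7.4, 150 mM NaCl, 1 mM DTT, 0.05% BSA, 0.0025% Igepal. After ~10 min, HTRF was read (ex 337, em 620/665 nm); IC50 from 665/620 ratio.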

[2] = target: T2, KRAS G12S (Homo sapiens, UniProt P01116, G12S); test: HTRF KRAS-SOS1 interaction assay, KRAS G12S; conditions: binned ≤2 μM / >2 μM, read-out: Inhibition of KRAS G12S (IC50)
T2 construct: made in house; host or cells: E. coli, e.g. BL21 (DE3)
T2 sequence (P01116 1-188 isoform P01116-2 G12S): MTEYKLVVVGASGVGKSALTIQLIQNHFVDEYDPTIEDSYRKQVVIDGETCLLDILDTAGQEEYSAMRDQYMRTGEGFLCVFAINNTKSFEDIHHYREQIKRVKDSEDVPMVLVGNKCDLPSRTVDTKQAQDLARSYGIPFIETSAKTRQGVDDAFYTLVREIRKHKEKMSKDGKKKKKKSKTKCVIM
Description: This assay can be also used to assess a selective inhibition or reduction of signaling output of a mutant Ras protein relative to a wildtype, or relative to a different mutant Ras protein. For example, the equilibrium interaction of wildtype KRAS or K-Ras mutant (e.g., wildtype or a mutant thereof) with SOS1 (e.g., hSOS1) can be assessed as a proxy or an indication for the ability of a subject compound to bind and inhibit Ras protein. The HTRF assay detects from (i) a fluorescence resonance energy transfer (FRET) donor (e.g., antiGST-Europium) that is bound to GST-tagged K-Ras mutant to (ii) a FRET acceptor (e.g., anti-6His-XL665) bound to a His-tagged hSOS1.
The assay buffer can contain ˜5 mM HEPES pH 7.4, ˜150 mM NaCl, ˜1 mM DTT, 0.05% BSA and 0.0025% (v/v) Igepal. A Ras working solution is prepared in an assay buffer containing typically a suitable amount of the protein construct (e.g., GST-tagged K-Ras mutant) and the FRET donor (e.g., antiGST-Eu (K) from Cisbio, France). A SOS1 working solution is prepared in an assay buffer containing suitable amount of the protein construct (e.g., His-hSOS1) and the FRET acceptor (e.g., anti-6His-XL665 from Cisbio, France). A suitable amount of the protein construct will depend on the range of activity or range of IC50 values being detected or under investigation. For detecting an IC50 within a range of 500 nM, the protein constructs of the same range of molarity can be utilized.
A fixed volume of DMSO with or without test compound is transferred into a 384-well plate. Ras working solution is added to all wells of the test plate. SOS1 working solution is added to all wells except for those that are subsequently filled with inhibitor control solution. Upon incubation for about 10 minutes or longer, the fluorescence is measured with a M1000Pro plate reader (Tecan) using HTRF detection (excitation 337 nm, emission 1:620 nm, emission 2:665 nm). Compounds are tested in duplicate at different concentrations (for example, 10 μM, 2.5 μM, 0.63 μM, 0.16 μM, 0.04 μM, 0.01 μM test compound). The ratiometric data (i.e., emission 2 divided by emission 1) is used to calculate IC50 values against Ras using GraphPad Prism (GraphPad software). Signaling output measured in terms of IC50 values can be obtained and a ratio of IC50 against one mutant relative to another mutant can be calculated.

[3] = target: T3, KRAS G12D (Homo sapiens, UniProt P01116, G12D); test: HTRF KRAS-SOS1 interaction assay, KRAS G12D; conditions: binned ≤2 μM / >2 μM, read-out: Inhibition of KRAS G12D (IC50)
T3 construct: made in house; host or cells: E. coli, e.g. BL21 (DE3)
T3 sequence (P01116 1-188 isoform P01116-2 G12D): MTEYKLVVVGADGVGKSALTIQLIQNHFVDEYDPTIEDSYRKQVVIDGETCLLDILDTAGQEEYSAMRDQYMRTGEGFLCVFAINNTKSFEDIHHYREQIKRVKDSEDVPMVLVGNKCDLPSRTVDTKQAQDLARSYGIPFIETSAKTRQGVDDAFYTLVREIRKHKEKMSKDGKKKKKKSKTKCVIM
Procedure, shortened: as §1

[4] = target: T4, KRAS G12V (Homo sapiens, UniProt P01116, G12V); test: HTRF KRAS-SOS1 interaction assay, KRAS G12V; conditions: binned ≤2 μM / >2 μM, read-out: Inhibition of KRAS G12V (IC50)
T4 construct: made in house; host or cells: E. coli, e.g. BL21 (DE3)
T4 sequence (P01116 1-188 isoform P01116-2 G12V): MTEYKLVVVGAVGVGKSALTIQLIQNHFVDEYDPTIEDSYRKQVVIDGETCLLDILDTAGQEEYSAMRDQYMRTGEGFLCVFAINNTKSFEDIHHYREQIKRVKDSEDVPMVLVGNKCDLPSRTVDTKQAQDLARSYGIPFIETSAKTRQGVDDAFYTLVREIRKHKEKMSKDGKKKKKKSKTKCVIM
Procedure, shortened: as §1

Measured: pIC50

T1 sequence (P01116 1-188 isoform P01116-2): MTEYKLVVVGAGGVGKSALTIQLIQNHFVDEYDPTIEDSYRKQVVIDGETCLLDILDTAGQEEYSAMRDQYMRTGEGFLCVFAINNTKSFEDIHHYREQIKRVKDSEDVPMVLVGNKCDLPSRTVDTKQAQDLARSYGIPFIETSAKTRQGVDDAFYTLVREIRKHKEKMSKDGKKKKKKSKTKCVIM

C#Cc1c(F)ccc2cc(O)cc(-c3nc4c5c(nc(OC[C@@]67CCCN6C[C@H](F)C7)nc5c3F)N([C@H](C)c3cccnc3N)CCO4)c12 (single isomer, unassigned) [Compound 862]
≥ 5.70: all assays above

C[C@H](c1cccnc1N)N1CCOc2c(Cl)c(-c3ccc(F)c4sc(N)c(C#N)c34)c(F)c3nc(OC[C@@]45CCCN4C[C@@]4(CC4(F)F)C5)nc1c23 [Compound 740, 2-amino-4-((R)-4-((R)-1-(2-aminopyridin-3-yl)ethyl)-8-chloro-2-(((1S,7a'S)-2,2-difluorodihydro-1′H,3′H-spiro[cyclopropane-1,2′-pyrrolizin]-7a′ (5′H)-yl)methoxy)-10-fluoro-5,6-dihydro-4H-[1,4]oxazepino[5,6,7-de]quinazolin-9-yl)-7-fluorobenzo[b]thiophene-3-carbonitrile]
≥ 5.70: all assays above

CC(=O)c1c(F)ccc2cc(O)cc(-c3nc4c5c(nc(OC[C@@H]6CCCN6C)nc5c3F)N(C(C)c3cccnc3N)CCO4)c12 (single isomer, unassigned) [Compound 750]
≥ 5.70: all assays above

C#Cc1c(F)ccc2cc(O)cc(-c3nc4c5c(nc(OC[C@@H]6CCCN6C)nc5c3F)N(C(C)c3cccnc3N)CCO4)c12 (single isomer, unassigned) [Compound 728]
≥ 5.70: all assays above

C[C@H](c1nccnc1N)N1CCOc2c(C(F)(F)F)c(-c3ccc(F)c4sc(N)c(C#N)c34)c(F)c3nc(OC[C@@]45CCCN4C[C@H](F)C5)nc1c23 (single isomer, unassigned) [Compound 760]
≥ 5.70: all assays above

C[C@H](c1cc(Cl)cnc1N)N1CCOc2c(C(F)(F)F)c(-c3ccc(F)c4sc(N)c(C#N)c34)c(F)c3nc(OC[C@@]45CCCN4CC(=C(F)F)C5)nc1c23 [Compound 793, 2-amino-4-(4-((R)-1-(2-amino-5-chloropyridin-3-yl)ethyl)-2-(((S)-2-(difluoromethylene)tetrahydro-1H-pyrrolizin-7a(5H)-yl)methoxy)-10-fluoro-8-(trifluoromethyl)-5,6-dihydro-4H-[1,4]oxazepino[5,6,7-de]quinazolin-9-yl)-7-fluorobenzo[b]thiophene-3-carbonitrile]
≥ 5.70: all assays above

COCC[C@H](c1cccnc1N)N1CCOc2c(C(F)(F)F)c(-c3ccc(F)c4sc(N)c(C#N)c34)c(F)c3nc(OC[C@@]45CCCN4C[C@H](F)C5)nc1c23 [Compound 782, 2-amino-4-(4-((R)-1-(2-aminopyridin-3-yl)-3-methoxypropyl)-10-fluoro-2-(((2R,7aS)-2-fluorotetrahydro-1H-pyrrolizin-7a(5H)-yl)methoxy)-8-(trifluoromethyl)-5,6-dihydro-4H-[1,4]oxazepino[5,6,7-de]quinazolin-9-yl)-7-fluorobenzo[b]thiophene-3-carbonitrile]
≥ 5.70: all assays above

C[C@H](c1cccnc1N)N1CCOc2c(Cl)c(-c3cccc4sc(N)c(C#N)c34)c(F)c3nc(OC[C@@H]4CCCN4C)nc1c23 [Compound 612, 2-amino-4-(4-((R)-1-(2-aminopyridin-3-yl)ethyl)-8-chloro-10-fluoro-2-(((S)-1-methylpyrrolidin-2-yl)methoxy)-5,6-dihydro-4H-[1,4]oxazepino[5,6,7-de]quinazolin-9-yl)benzo[b]thiophene-3-carbonitrile]
≥ 5.70: all assays above

C[C@H](c1cc(C2CC2)cnc1N)N1CCOc2c(C(F)(F)F)c(-c3ccc(F)c4sc(N)c(C#N)c34)c(F)c3nc(OC[C@@]45CCCN4C[C@H](F)C5)nc1c23 [Compound 654, 2-amino-4-(4-((R)-1-(2-amino-5-cyclopropylpyridin-3-yl)ethyl)-10-fluoro-2-(((2R,7aS)-2-fluorotetrahydro-1H-pyrrolizin-7a(5H)-yl)methoxy)-8-(trifluoromethyl)-5,6-dihydro-4H-[1,4]oxazepino[5,6,7-de]quinazolin-9-yl)-7-fluorobenzo[b]thiophene-3-carbonitrile]
≥ 5.70: all assays above

C[S+]([O-])CCC[C@H](c1cccnc1N)N1CCOc2c(C(F)(F)F)c(-c3ccc(F)c4sc(N)c(C#N)c34)c(F)c3nc(OC[C@@]45CCCN4C[C@H](F)C5)nc1c23 (mixture of isomers) [Compound 691, 2-amino-4-(4-((1R)-1-(2-aminopyridin-3-yl)-4-(methylsulfinyl)butyl)-10-fluoro-2-(((2R,7aS)-2-fluorotetrahydro-1H-pyrrolizin-7a(5H)-yl)methoxy)-8-(trifluoromethyl)-5,6-dihydro-4H-[1,4]oxazepino[5,6,7-de]quinazolin-9-yl)-7-fluorobenzo[b]thiophene-3-carbonitrile]
≥ 5.70: all assays above

N#Cc1c(N)sc2c(F)ccc(-c3c(Cl)c4c5c(nc(OC[C@@]67CCCN6C[C@H](F)C7)nc5c3F)N([C@H](C/C=C\C(F)(F)F)c3cccnc3N)CCO4)c12 [Compound 845, 2-amino-4-(4-((R,Z)-1-(2-aminopyridin-3-yl)-5,5,5-trifluoropent-3-en-1-yl)-8-chloro-10-fluoro-2-(((2R,7aS)-2-fluorotetrahydro-1H-pyrrolizin-7a(5H)-yl)methoxy)-5,6-dihydro-4H-[1,4]oxazepino[5,6,7-de]quinazolin-9-yl)-7-fluorobenzo[b]thiophene-3-carbonitrile]
≥ 5.70: all assays above

CC(Oc1nc2c3c(c(Cl)c(-c4ccc(F)c5sc(N)c(C#N)c45)c(F)c3n1)OCCN2[C@H](C)c1cccnc1N)[C@@H]1CC(F)(F)CN1C (single isomer, unassigned) [Compound 919]
≥ 5.70: all assays above

N#Cc1c(N)sc2c(F)ccc(-c3c(Cl)c4c5c(nc(OC[C@@]67CCCN6C[C@H](F)C7)nc5c3F)N([C@H](C#CC3CC3)c3cccnc3N)CCO4)c12 [Compound 609, 2-amino-4-(4-((R)-1-(2-aminopyridin-3-yl)-3-cyclopropylprop-2-yn-1-yl)-8-chloro-10-fluoro-2-(((2R,7aS)-2-fluorotetrahydro-1H-pyrrolizin-7a(5H)-yl)methoxy)-5,6-dihydro-4H-[1,4]oxazepino[5,6,7-de]quinazolin-9-yl)-7-fluorobenzo[b]thiophene-3-carbonitrile]
≥ 5.70: all assays above

N#Cc1c(N)sc2c(F)ccc(-c3c(C(F)(F)F)c4c5c(nc(OC[C@@]67CCCN6C[C@@]6(CC6(F)F)C7)nc5c3F)N([C@H](CCC(F)(F)F)c3cccnc3N)CCO4)c12 [Compound 883, 2-amino-4-(4-((R)-1-(2-aminopyridin-3-yl)-4,4,4-trifluorobutyl)-2-(((1S,7a′S)-2,2-difluorodihydro-1′H,3′H-spiro[cyclopropane-1,2′-pyrrolizin]-7a′(5′H)-yl)methoxy)-10-fluoro-8-(trifluoromethyl)-5,6-dihydro-4H-[1,4]oxazepino[5,6,7-de]quinazolin-9-yl)-7-fluorobenzo[b]thiophene-3-carbonitrile]
≥ 5.70: all assays above
